Assay results reported in patent US20200206187A1, “SCREENING PLATFORM TO IDENTIFY THERAPEUTIC DRUGS OR AGENTS FOR TREATMENT OF ALZHEIMER'S DISEASE” (priority 2017, published 2020).
Entries after “also recorded” stand apart in the source; their conditions may differ.

Experiments:
Type in all cases: cell-based, murine
[1] = tested on: naïve BV2 microglial cells; test: Abeta42 uptake assay into naïve BV2 microglial cells (Wako Abeta42 ELISA); conditions: naïve BV2, 3 h pre-treatment, 300 nM Abeta42 for 2 h (FIG. 3)
Description: (§1) As shown in the figures, compounds were selected and tested in microglial and 3D AD cell culture models at a range of concentrations, and over a period of time ranging from hours to days. The culture models were chosen to elucidate different stages and biological aspects of Alzheimer's disease. The toxicity of the compounds was assessed analyzing the cultures media with the commercially available assay (CytoTox-ONE™, Promega) that measures the release of LDH. Toxic concentrations were excluded from further testing. For microglial cultures, Aβ42 and Aβ40 uptake assays were carried forward for 2 to 24 hours following 3 hours of compound pre-treatment. The experimental outcomes were determined by measuring increased internalized Aβ42 and Aβ40 levels by a commercially available ELISA assay (Wako Abeta42 ELISA kit). Alternatively, LPS-activation assays were carried forward for 3 h following 3 hours of compound pre-treatment. The reduction of toxic cytokines released in the culture media was monitored.
(§2) Naïve BV2 Cells, or BV2 stably expressing wt-CD33, were seeded in 24-well plates at the density of 2.5×10E5 cells for BV2 and 4×10E5 cells for wt-CD33 clone, in proliferating media. […] Protein concentrations in the lysate supernatants were determined with the Pierce™ BCA protein assay kit. 2-3 μg/well of protein from the lysates was analyzed for Abeta42 uptake using the Wako Abeta42 ELISA kit. […]

[2] = tested on: naïve BV2 microglial cells; test: LDH toxicity assay (CytoTox-ONE) on naïve BV2 microglial cells; conditions: 5 hours of treatment (FIG. 1)
Description: as §1
(§3) Naïve BV2 Cells, or BV2 stably expressing wt-CD33, were seeded in 24-well plates at the density of 2.5×10E5 cells for BV2 and 4×10E5 cells for wt-CD33 clone, in proliferating media. On the following day, cells were treated with compounds, or DMSO as a control, at different concentrations in proliferating media for 3 hours. For Abeta42 and Abeta40 uptake assays, cells were washed twice with 500 μL/well of PBS and treated with compounds/DMSO in the presence of 300 nM Abeta peptide in DMEM media for 2 hours. At the end of the 2 hour incubation, 150 μL of media were collected from the 24-well plates. They were centrifuged at 4° C., 2500 rpm for 10 min, transferred to new plates and used to assess compounds toxicity with CytoTox-ONE™ (LDH) assay. […] Protein concentrations in the lysate supernatants were determined with the Pierce™ BCA protein assay kit. 2-3 μg/well of protein from the lysates was analyzed for Abeta42 uptake using the Wako Abeta42 ELISA kit. […]

[3] = tested on: wtCD33-expressing microglial cells; test: LDH toxicity assay (CytoTox-ONE) on wtCD33-expressing microglial cells; conditions: 5 hours of treatment (FIG. 2)
Description: as §1, §3

[4] = tested on: wt-CD33 expressing BV2 cells; test: Abeta42 uptake assay into wt-CD33 expressing BV2 cells (Wako Abeta42 ELISA); conditions: wt-CD33 expressing BV2, 3 h pre-treatment, 300 nM Abeta42 for 2 h (FIG. 4)
Description: as §1, §2

[5] = tested on: wt-CD33 expressing BV2 cells; test: Abeta40 uptake assay into wt-CD33 expressing BV2 cells (Cisbio Abeta40 HTRF); conditions: wt-CD33 expressing BV2, 3 h pre-treatment, 300 nM Abeta40 for 2 h (FIG. 6)
Description: as §1, §2

[6] = tested on: naïve BV2 microglial cells; test: Abeta40 uptake assay into naïve BV2 microglial cells (Cisbio Abeta40 HTRF); conditions: naïve BV2, 3 h pre-treatment, 300 nM Abeta40 for 2 h (FIG. 5)
Description: as §1, §2

[7] = tested on: naïve BV2 microglial cells; test: Abeta42 uptake assay in microglial cells, 24-hour pre-treatment protocol
Description: (§4) The protocol used for 24-hour pre-treatment testing in microglial cells was as follows.
(§5) On day zero the naïve BV2 microglial cells were seeded in proliferating media.
(§6) On day one the cells were then treated with 817MA, or DMSO as a control, in proliferating media for 24 hours, at concentrations ranging from 0 to 50 μM.
(§7) On day two the cells were then washed twice with PBS and treated with compounds/DMSO in the presence of 300 nM Abeta42 peptide in DMEM media for 2 hours. The compounds toxicity was assessed in the media collected at the end of the treatment with CytoTox-ONE™ (LDH) assay. The remaining cells were lysed with RIPA buffer supplemented with protease and phosphatase inhibitors. Protein concentrations were determined with the Pierce™ BCA protein assay kit. Normalized lysates were analyzed for Abeta42 uptake using the Wako Abeta42 ELISA kit.

[8] = tested on: naïve BV2 microglial cells; test: LDH toxicity assay in microglial cells, 24-hour pre-treatment protocol; conditions: 24 h pre-treatment (FIG. 25)
Description: as §4, §5, §6, §7

[9] = tested on: LPS-activated BV2 microglial cells; test: BV2 LPS activation cytokine assay (MSD Proinflammatory Panel 1); conditions: BV2, 1 μg/mL LPS 3 h, maleate
Description: as §1
For microglial activation experiments, cells were treated with compounds/DMSO in the presence of 1 μg/mL LPS in proliferating media for 3 hours. The media was collected, cleared of particulate and analyzed using MSD Proinflammatory Panel 1 cytokine assay kit.
FIG. 7 tabulates the results from an LPS activation testing of microglial cells, showing that cytokines KC/GRO, IL-6, IL-10 and TNF-α were detectable upon LPS activation, although KC/GRO was only detectable in undiluted media. The 10 cytokines were simultaneously analyzed in microglial conditioned media. FIG. 8-15 show the results for an assay to test the effect of test compounds DMSO, 817MA, 817A11 and 614P on cytokines KC/GRO, IL-6, IL-10 and TNF-α. […] The two sequential assays determine which if any cytokines are detected upon LPS activation, followed by determination of the reduction in detectable cytokines upon treatment/exposure to a test compound.

CS(=O)(=O)Nc1cc2occ(NC=O)c(=O)c2cc1Oc1ccccc1 [Compound 614P, N-(3-formamido-4-oxo-6-phenoxy-4H-chromen-7-yl)]
Abeta42 uptake EC50 (comparison between compounds) [1]: higher EC50
LDH toxicity [2]: No statistically significant toxicity
LDH toxicity [3]: No statistically significant toxicity
Abeta42 uptake EC50 (comparison between compounds) [4]: higher EC50
Abeta40 uptake EC50 (comparison between compounds) [5]: higher EC50 than both 817MA and 817A11
Abeta40 uptake EC50 (comparison between compounds) [6]: higher EC50 than both 817MA and 817A11

O=C(CCOCCc1ccc2sccc2c1)N1CC(O)C1 [Compound 817A11, 1-{3-[2-(1-benzothiophen-5-yl)ethoxy]propionyl}azetidin-3-ol]
LDH toxicity [2]: No statistically significant toxicity
LDH toxicity [3]: No statistically significant toxicity
Abeta40 uptake EC50 (comparison between compounds) [5]: lower EC50 Abeta40 uptake than 817MA treated cells
Abeta40 uptake EC50 (comparison between compounds) [6]: lower EC50 Abeta40 uptake than 817MA treated cells

O=C(O)/C=C\C(=O)O.OC1CN(CCCOCCc2ccc3sccc3c2)C1 [Compound 817MA, 1-(3-(2-(1-benzothiophen-5-yl)ethoxy)propyl)azetidin-3-ol maleate]
LDH toxicity [2]: No statistically significant toxicity
LDH toxicity [3]: No statistically significant toxicity
EC50 ([7]; Mus musculus, BV-2, following 24 hours of compound pre-treatment (FIG. 26)): ~20 µM
Abeta42 uptake versus DMSO control ([7]; above about 1 μM, 24 h pre-treatment (FIG. 26)): greater than the DMSO control
LDH toxicity compared to DMSO ([8]; at about 30 μM): no statistically significant toxicity
LDH toxicity ([8]; below about 50 μM): low or no toxicity
TNFα production upon LPS activation ([9]; first and second experiment (FIG. 8, 9)): reduced concentrations; also recorded: only compound effectively reducing TNFα production
IL-6 production upon LPS activation ([9]; first and second experiment (FIG. 10, 11)): reduced concentrations; also recorded: most effective compound for reducing IL-6 production
IL-10 production upon LPS activation ([9]; first and second experiment (FIG. 12, 13)): reduced concentrations; also recorded: most effective compound for reducing IL-10 production
